# Laboratory results taken from ChEMBL document CHEMBL3779873, “Rubrolide analogues and their derived lactams as potential anticancer agents” (Medchemcomm, 2016).
# The source made the active and inactive calls. The rule behind the calls is not given here.
# Assays:
# [1] = Cytotoxicity against human HL60 cells after 72 hrs by MTT assay; format: functional, HL-60
# [2] = Cytotoxicity against human OVCAR8 cells after 72 hrs by MTT assay; format: functional, OVCAR-8
# HL-60 [3] = test: Induction of apoptosis in human HL60 cells assessed as cell shrinkage at 0.5 uM after 24 hrs by giemsa staining-based light microscopy analysis; format: functional
# HL-60 [4] = test: Induction of cell cycle arrest in human HL60 cells assessed as accumulation at G0/G1 phase at 0.5 uM after 24 hrs by annexin V/propidium iodide staining based flow cytometry (reference value: 45.81 +/- 3.16%); format: functional
# HL-60 [5] = test: Induction of apoptosis in human HL60 cells assessed as chromatin condensation at 0.5 uM after 24 hrs by giemsa staining-based light microscopy analysis; format: functional, cell-based
# [6] = Cytotoxicity against human SF295 cells after 72 hrs by MTT assay; format: functional, SF-295
# HL-60 [7] = test: Induction of cell cycle arrest in human HL60 cells assessed as accumulation at S phase at 0.5 uM after 24 hrs by annexin V/propidium iodide staining based flow cytometry (reference value: 27.64 +/- 2.15%); format: functional
# HL-60 [8] = test: Induction of apoptosis in human HL60 cells assessed as nuclear fragmentation at 0.5 uM after 24 hrs by giemsa staining-based light microscopy analysis; format: functional, cell-based
# HL-60 [9] = test: Induction of cell cycle arrest in human HL60 cells assessed as accumulation at G2/M phase at 0.5 uM after 24 hrs by annexin V/propidium iodide staining based flow cytometry (reference value: 19.04 +/- 1.1%); format: functional
# [10] = Cytotoxicity against human HCT116 cells after 72 hrs by MTT assay; format: functional, HCT-116
# HL-60 [11] = test: Induction of cell cycle arrest in human HL60 cells assessed as accumulation at sub-G0/G1 phase at 0.5 uM after 24 hrs by annexin V/propidium iodide staining based flow cytometry (reference value: 6.10 +/- 0.28 %); format: functional
# HL-60 [12] = test: Induction of apoptosis in human HL60 cells assessed as increase in apoptotic cells at 2.5 uM after 24 hrs by acridine orange/ethidium bromide staining based fluorescence microscopy; format: functional
# HL-60 [13] = test: Induction of apoptosis in human HL60 cells assessed as mitochondrial depolarization after 24 hrs by rhodamine-123 as fluorescent dye based flow cytometry; format: functional, cell-based
# HL-60 [14] = test: Induction of apoptosis in human HL60 cells assessed as phosphatidylserine externalization at 10 uM after 24 hrs by annexin V/propidium iodide staining based flow cytometry; format: functional
# HL-60 [15] = test: Induction of cell cycle arrest in human HL60 cells assessed as accumulation at G2/M phase at 2.5 uM after 24 hrs by annexin V/propidium iodide staining based flow cytometry (reference value: 19.04 +/- 1.10 %); format: functional
# HL-60 [16] = test: Induction of apoptosis in human HL60 cells assessed as chromatolysis at 2.5 to 10 uM after 24 hrs by giemsa staining-based light microscopy analysis; format: functional, cell-based
# HL-60 [17] = test: Induction of cell cycle arrest in human HL60 cells assessed as accumulation at G0/G1 phase at 5 uM after 24 hrs by annexin V/propidium iodide staining based flow cytometry (reference value: 45.81 +/- 3.16 %); format: functional
# HL-60 [18] = test: Induction of cell cycle arrest in human HL60 cells assessed as accumulation at S phase at 10 uM after 24 hrs by annexin V/propidium iodide staining based flow cytometry (reference value: 27.64 +/- 2.15 %); format: functional
# HL-60 [19] = test: Induction of apoptosis in human HL60 cells assessed as chromatin condensation at 2.5 to 10 uM after 24 hrs by giemsa staining-based light microscopy analysis; format: functional, cell-based
# HL-60 [20] = test: Induction of apoptosis in human HL60 cells assessed as decrease in viable cells at 5 uM after 24 hrs by acridine orange/ethidium bromide staining based fluorescence microscopy; format: functional
# HL-60 [21] = test: Induction of cell cycle arrest in human HL60 cells assessed as accumulation at G0/G1 phase at 10 uM after 24 hrs by annexin V/propidium iodide staining based flow cytometry (reference value: 45.81 +/- 3.16 %); format: functional
# HL-60 [22] = test: Induction of apoptosis in human HL60 cells assessed as reduction in cellular and nuclear volumes at 2.5 to 10 uM after 24 hrs by giemsa staining-based light microscopy analysis; format: functional, cell-based
# HL-60 [23] = test: Induction of apoptosis in human HL60 cells assessed as increase in apoptotic cells after 24 hrs by acridine orange/ethidium bromide staining based fluorescence microscopy; format: functional, cell-based
# [24] = Cytotoxicity against human SF295 cells assessed as reduction in cell viability at 25 ug/mL after 72 hrs by MTT assay; format: functional, SF-295
# HL-60 [25] = test: Induction of apoptosis in human HL60 cells assessed as phosphatidylserine externalization at 2.5 uM after 24 hrs by annexin V/propidium iodide staining based flow cytometry; format: functional
# HL-60 [26] = test: Induction of apoptosis in human HL60 cells assessed as increase in apoptotic cells at 10 uM after 24 hrs by acridine orange/ethidium bromide staining based fluorescence microscopy; format: functional
# HL-60 [27] = test: Induction of apoptosis in human HL60 cells assessed as decrease in viable cells at 2.5 uM after 24 hrs by acridine orange/ethidium bromide staining based fluorescence microscopy; format: functional
# HL-60 [28] = test: Induction of cell cycle arrest in human HL60 cells assessed as accumulation at G2/M phase at 5 uM after 24 hrs by annexin V/propidium iodide staining based flow cytometry (reference value: 19.04 +/- 1.10 %); format: functional
# [29] = Cytotoxicity against human HCT116 cells assessed as reduction in cell viability at 25 ug/mL after 72 hrs by MTT assay; format: functional, HCT-116
# HL-60 [30] = test: Induction of apoptosis in human HL60 cells assessed as mitochondrial depolarization at 10 uM after 24 hrs by rhodamine-123 as fluorescent dye based flow cytometry; format: functional
# HL-60 [31] = test: Induction of apoptosis in human HL60 cells assessed as phosphatidylserine externalization at 5 uM after 24 hrs by annexin V/propidium iodide staining based flow cytometry; format: functional
# HL-60 [32] = test: Induction of apoptosis in human HL60 cells assessed as decrease in viable cells after 24 hrs by acridine orange/ethidium bromide staining based fluorescence microscopy; format: functional, cell-based
# [33] = Cytotoxicity against human OVCAR8 cells assessed as reduction in cell viability at 25 ug/mL after 72 hrs by MTT assay; format: functional, OVCAR-8
# HL-60 [34] = test: Induction of cell cycle arrest in human HL60 cells assessed as accumulation at G0/G1 phase at 2.5 uM after 24 hrs by annexin V/propidium iodide staining based flow cytometry (reference value: 45.81 +/- 3.16 %); format: functional
# HL-60 [35] = test: Induction of apoptosis in human HL60 cells assessed as DNA fragmentation after 24 hrs by annexin V/propidium iodide staining based flow cytometry; format: functional, cell-based
# HL-60 [36] = test: Induction of cell cycle arrest in human HL60 cells assessed as accumulation at sub-G0/G1 phase at 2.5 uM after 24 hrs by annexin V/propidium iodide staining based flow cytometry (reference value: 6.10 +/- 0.28 %); format: functional
# HL-60 [37] = test: Induction of cell cycle arrest in human HL60 cells assessed as accumulation at sub-G0/G1 phase at 10 uM after 24 hrs by annexin V/propidium iodide staining based flow cytometry (reference value: 6.10 +/- 0.28 %); format: functional
# HL-60 [38] = test: Induction of apoptosis in human HL60 cells assessed as increase in necrotic cells at 10 uM after 24 hrs by acridine orange/ethidium bromide staining based fluorescence microscopy; format: functional
# HL-60 [39] = test: Induction of apoptosis in human HL60 cells assessed as mitochondrial depolarization at 2.5 uM after 24 hrs by rhodamine-123 as fluorescent dye based flow cytometry; format: functional
# HL-60 [40] = test: Induction of apoptosis in human HL60 cells assessed as cytoplasmic budding at 2.5 to 10 uM after 24 hrs by giemsa staining-based light microscopy analysis; format: functional, cell-based
# HL-60 [41] = test: Induction of cell cycle arrest in human HL60 cells assessed as accumulation at sub-G0/G1 phase at 5 uM after 24 hrs by annexin V/propidium iodide staining based flow cytometry (reference value: 6.10 +/- 0.28 %); format: functional
# HL-60 [42] = test: Induction of cell cycle arrest in human HL60 cells assessed as accumulation at S phase at 2.5 uM after 24 hrs by annexin V/propidium iodide staining based flow cytometry (reference value: 27.64 +/- 2.15 %); format: functional
# HL-60 [43] = test: Induction of cell cycle arrest in human HL60 cells assessed as accumulation at S phase at 5 uM after 24 hrs by annexin V/propidium iodide staining based flow cytometry (reference value: 27.64 +/- 2.15 %); format: functional
# HL-60 [44] = test: Induction of apoptosis in human HL60 cells assessed as increase in necrotic cells after 24 hrs by acridine orange/ethidium bromide staining based fluorescence microscopy; format: functional, cell-based
# [45] = Cytotoxicity against mouse L929 cells after 72 hrs by MTT assay; format: cell-based; details: read-out: RC50
# HL-60 [46] = test: Induction of apoptosis in human HL60 cells assessed as mitochondrial depolarization at 5 uM after 24 hrs by rhodamine-123 as fluorescent dye based flow cytometry; format: functional
# HL-60 [47] = test: Induction of apoptosis in human HL60 cells assessed as intranuclear vacuoles at 2.5 to 10 uM after 24 hrs by giemsa staining-based light microscopy analysis; format: functional, cell-based
# HL-60 [48] = test: Induction of apoptosis in human HL60 cells assessed as decrease in viable cells at 10 uM after 24 hrs by acridine orange/ethidium bromide staining based fluorescence microscopy; format: functional
# HL-60 [49] = test: Induction of cell cycle arrest in human HL60 cells assessed as accumulation at G2/M phase at 10 uM after 24 hrs by annexin V/propidium iodide staining based flow cytometry (reference value: 19.04 +/- 1.10 %); format: functional
smiles,measurement,setting,value
COc1cccc2c1C(=O)c1c(O)c3c(c(O)c1C2=O)C[C@@](O)(C(=O)CO)C[C@@H]3O[C@H]1C[C@H](N)[C@H](O)[C@H](C)O1 [DOXORUBICIN],RC50,[1],0.02 µM
same,RC50,[2],0.62 µM
same,Activity,HL-60 [3],Active
same,Activity,HL-60 [4],33.78%
same,Activity,HL-60 [5],Active
same,RC50,[6],0.44 µM
same,Activity,HL-60 [7],15.5%
same,Activity,HL-60 [8],Active
same,Activity,HL-60 [9],2.59%
same,RC50,[10],0.04 µM
same,Activity,HL-60 [11],46.25%
COc1ccc(Br)cc1C1=C(Br)C(=O)O/C1=C\c1ccc(C(F)(F)F)cc1,Activity,HL-60 [12],31.3%
same,Activity,HL-60 [13],Dose-dependent effect
same,Activity,HL-60 [14],48.1%
same,RC50,[1],3.58 µM
same,Activity,HL-60 [15],5.92%
same,Activity,HL-60 [16],Active
same,Activity,HL-60 [17],72.43%
same,Activity,HL-60 [18],11.81%
same,Activity,HL-60 [19],Active
same,Activity,HL-60 [20],38.8%
same,Activity,HL-60 [21],31.64%
same,Activity,HL-60 [22],Active
same,Activity,HL-60 [23],Dose-dependent effect
same,Activity,[24],91.06%
same,Activity,HL-60 [25],16.2%
same,RC50,[2],2.74 µM
same,Activity,HL-60 [26],71.5%
same,Activity,HL-60 [27],67.1%
same,Activity,HL-60 [28],2.86%
same,Activity,[29],98.22%
same,Activity,HL-60 [30],68%
same,Activity,HL-60 [31],33.3%
same,RC50,[6],4.9 µM
same,Activity,HL-60 [32],Dose-dependent effect
same,Activity,[33],99.5%
same,Activity,HL-60 [34],72.81%
same,Activity,HL-60 [35],Dose-dependent effect
same,Activity,HL-60 [36],15.27%
same,Activity,HL-60 [37],48.52%
same,Activity,HL-60 [38],16.7%
same,Activity,HL-60 [39],35.1%
same,Activity,HL-60 [40],Active
same,Activity,HL-60 [41],23.17%
same,RC50,[10],2.98 µM
same,Activity,HL-60 [42],13.75%
same,Activity,HL-60 [43],12.93%
same,Activity,HL-60 [44],Dose-dependent effect
same,CC50 at 72 h,[45],> 50 µM
same,Activity,HL-60 [46],47%
same,Activity,HL-60 [47],Active
same,Activity,HL-60 [48],11.8%
same,Activity,HL-60 [49],9.12%
